Marks after values point to notes of the source that are not given here.
System: C57B1/6J mice
Assay: Hematological changes in mice by a single subcutaneous injection of TCDD
Format: in vivo
Parameters: NEU / LYM / PLT: unit not given here
Experimental: Male C57B1/6J mice of 5 weeks old having the average weight of 18-22 g which had been bred in CRJ (Charles River in Japan) were purchased and used in this example as experimental animals. Those mice were acclimated under the constant breeding condition, i.e. the temperature of 24±1° C., the humidity of 60±10% and the light and darkness cycle of 12 hours, for one week and thereafter, utilized in the experiment.
2,3,7,8-tetrachlorodibenzo-p-dioxin (TCDD) dissolved in toluene (purity of 95% or more as a result of gas chromatography analysis), manufactured by Chem. Services Inc. in USA, was volatilized with nitrogen to obtain powder. The obtained powder was dissolved in a mixed solvent containing acetone and corn oil with a volume ratio of 1:6. The resulting solution each containing 110, 27.5 and 6.9 μg/kg of TCDD was subcutaneously injected to mice at a volume of 5 ml per body weight. […] The mice were supplied with the feed from 10 days before (pre-administration) to 60 days after administration of TCDD (post-administration).
Upon completion of the experiment for 60 days, the experimental animals were fasted for 24 hours and anesthetized with ether. Then, they were abdominally incised and blood was gathered from abdominal vena cava. They were sacrificed by the release of blood. Liver, kidneys, testes and epididymides were extracted and all the extracted organs were weighed. Only the testes were separately kept and observed under optical and electron microscopes. For biochemical finding test, serum was separated from blood with a centrifuge and the separated serum was analyzed with an automated blood biochemical analyzer, Dimension (Dupont, USA). Blood was put to another blood gathering bottle and then, analyzed with an automated blood cell analyzer, Celldyn (Abbott, USA).
The results are expressed as Mean±Standard Deviation values. For statistical analysis of the body weight, feed and water uptake, biochemical findings, hematological findings and the weight of organ in an acute toxicity test, verification was performed by one way analysis of variance (ANOVA) in case of equal distribution. In case significance was recognized in ANOVA, the Student's t-test was performed in the levels of p<0.05 and p<0.01.
For hematological findings, white blood cell (WBC), neutrophil (NEU), lymphocyte (LYM), monocyte (MONO), eosinophil (EOS), basophil (BASO) and red blood cell (RBC) counts, and hemoglobin concentration (HGB), hematocrit (HCT), mean cell volume (MCV), mean corpuscular hemoglobin (MCH), mean corpuscular hemoglobin concentration (MCHC), red blood cell distribution width (RDW) and platelet count (PLT) were measured and the results are as follows.

[1] = TCDD 6.9 μg/kg + UDCA 0.125 wt %
[2] = TCDD 6.9 μg/kg + UDCA 0.25 wt %
[3] = TCDD 27.5 μg/kg + UDCA 0.125 wt %
[4] = TCDD 27.5 μg/kg + UDCA 0.25 wt %
[5] = TCDD 27.5 μg/kg + UDCA 0.5 wt %

C[C@H](CCC(=O)O)[C@H]1CC[C@H]2[C@@H]3[C@@H](O)C[C@@H]4C[C@H](O)CC[C@]4(C)[C@H]3CC[C@]12C [UDCA, 3α, 7β-dihydroxy-5β-cholanoic acid]
MONO [1]: 0.05 ± 0.06 10^3
NEU [1]: 0.32 ± 0.13 10^3
PLT [1]: 1117.7 ± 88.65 10^3
RBC [1]: 9.66 ± 0.24 10^6
RDW [1]: 20.17 ± 1.07%
WBC [1]: 5.55 ± 1.91 10^3
BASO [2]: 0.09 ± 0.04 10^3
EOS [2]: 0.003 ± 0.002 10^3
HCT [2]: 44.77 ± 1.57%
HGB [2]: 14.16 ± 0.44 g/dL
LYM [2]: 5.17 ± 1.49 10^3
MCH [2]: 15.04 ± 0.25 pg
MCHC [2]: 31.63 ± 0.58 g/dL
MCV [2]: 47.56 ± 0.81 fL
MONO [2]: 0.04 ± 0.02 10^3
NEU [2]: 0.28 ± 0.07 10^3
PLT [2]: 1141.22 ± 67.79 10^3
RBC [2]: 9.42 ± 0.37 10^6
RDW [2]: 19.73 ± 0.91%
WBC [2]: 5.68 ± 1.50 10^3
BASO (TCDD 6.9 μg/kg + UDCA 0.5 wt %): 0.10 ± 0.06 10^3
EOS (TCDD 6.9 μg/kg + UDCA 0.5 wt %): 0.002 ± 0.002 10^3
HCT (TCDD 6.9 μg/kg + UDCA 0.5 wt %): 45.35 ± 0.93%
HGB (TCDD 6.9 μg/kg + UDCA 0.5 wt %): 14.47 ± 0.29 g/dL
LYM (TCDD 6.9 μg/kg + UDCA 0.5 wt %): 5.12 ± 1.13 10^3
MCH (TCDD 6.9 μg/kg + UDCA 0.5 wt %): 14.98 ± 0.19 pg
MCHC (TCDD 6.9 μg/kg + UDCA 0.5 wt %): 31.87 ± 0.41 g/dL
MCV (TCDD 6.9 μg/kg + UDCA 0.5 wt %): 47.08 ± 0.63 fL
MONO (TCDD 6.9 μg/kg + UDCA 0.5 wt %): 0.04 ± 0.03 10^3
NEU (TCDD 6.9 μg/kg + UDCA 0.5 wt %): 0.34 ± 0.11 10^3
PLT (TCDD 6.9 μg/kg + UDCA 0.5 wt %): 1112.89 ± 76.53 10^3
RBC (TCDD 6.9 μg/kg + UDCA 0.5 wt %): 9.64 ± 0.26 10^6
RDW (TCDD 6.9 μg/kg + UDCA 0.5 wt %): 20.19 ± 0.72%
WBC (TCDD 6.9 μg/kg + UDCA 0.5 wt %): 5.76 ± 1.13 10^3
BASO [3]: 0.09 ± 0.04 10^3
EOS [3]: 0.002 ± 0.003 10^3
HCT [3]: 43.77 ± 1.37 %
HGB [3]: 14.64 ± 0.67 g/dL
LYM [3]: 2.06 ± 0.81 10^3
MCH [3]: 15.32 ± 0.39 pg
MCHC [3]: 33.65 ± 1.04 g/dL
MCV [3]: 45.51 ± 0.35 fL
MONO [3]: 0.02 ± 0.01 10^3
NEU [3]: 0.34 ± 0.10## 10^3
PLT [3]: 1172.44 ± 80.58## 10^3
RBC [3]: 9.61 ± 0.29 10^6
RDW [3]: 20.08 ± 1.20%
WBC [3]: 3.69 ± 0.72 10^3
BASO [4]: 0.18 ± 0.07 10^3
EOS [4]: 0.008 ± 0.007 10^3
HCT [4]: 43.65 ± 1.24 %
HGB [4]: 14.23 ± 0.55 g/dL
LYM [4]: 2.99 ± 1.06## 10^3
MCH [4]: 15.01 ± 0.44 pg
MCHC [4]: 32.58 ± 0.73 g/dL
MCV [4]: 46.09 ± 0.42 fL
MONO [4]: 0.05 ± 0.03 10^3
NEU [4]: 0.48 ± 0.09## 10^3
PLT [4]: 1069.70 ± 128.48## 10^3
RBC [4]: 9.48 ± 0.29 10^6
RDW [4]: 19.99 ± 1.08%
WBC [4]: 3.78 ± 1.19 10^3
BASO [5]: 0.14 ± 0.07 10^3
EOS [5]: 0.005 ± 0.003 10^3
HCT [5]: 44.49 ± 1.63 %
HGB [5]: 14.80 ± 0.78 g/dL
LYM [5]: 3.04 ± 0.77## 10^3
MCH [5]: 15.46 ± 0.59 pg
MCHC [5]: 33.23 ± 1.04 g/dL
MCV [5]: 46.46 ± 0.86 fL
MONO [5]: 0.05 ± 0.04 10^3
NEU [5]: 0.59 ± 0.23## 10^3
PLT [5]: 1068.14 ± 84.28## 10^3
RBC [5]: 9.57 ± 0.25 10^6
RDW [5]: 20.44 ± 0.82%
WBC [5]: 3.71 ± 0.99 10^3

From US20040029965A1, “Formulations for reducing or eliminating toxicity of enviromental hormones containing ursodeoxycholic acid” (priority 2000, published 2004)
